In ChEMBL document CHEMBL4622939, “Synthesis and anti-proliferative activity of a novel 1,2,3-triazole tethered chalcone acetamide derivatives” (Bioorg Med Chem Lett, 2020):

tested on: A549; assay: Antiproliferative activity against human A549 cells assessed as cell growth inhibition by MTT assay; format: functional, cell-based

Row | IC50 [µM] | SMILES
1 | 43.8 | CCCCCCCCn1cc(/C=C/C(=O)c2ccc(NC(=O)CN3CCC(Cc4ccccc4)CC3)cc2)nn1
2 | 11.6 | CCCCCCCCn1cc(/C=C/C(=O)c2ccc(NC(=O)CBr)cc2)nn1
3 | 62.5 | CCCCCCCCCCn1cc(/C=C/C(=O)c2ccc(NC(=O)CN3CCN(c4ccccc4OC)CC3)cc2)nn1
4 | 52.4 | CCCCCCCCn1cc(/C=C/C(=O)c2ccc(NC(=O)CN3CCN(c4ccccc4)CC3)cc2)nn1
5 | 34 | COc1ccccc1N1CCN(CC(=O)Nc2ccc(C(=O)/C=C/c3cn(Cc4ccc(Br)cc4)nn3)cc2)CC1
6 | 9.74 | CCCCCCCCCCn1cc(/C=C/C(=O)c2ccc(NC(=O)CBr)cc2)nn1
7 | 52.1 | CCCCCCCCCCn1cc(/C=C/C(=O)c2ccc(NC(=O)CN3CCN(c4ccccc4)CC3)cc2)nn1
8 | 34 | CCCCCCCCn1cc(/C=C/C(=O)c2ccc(NC(=O)CN3CCN(c4ccccc4OC)CC3)cc2)nn1
9 | 47.1 | CCCCCCCCn1cc(/C=C/C(=O)c2ccc(NC(=O)CN3CCN(c4ccccc4F)CC3)cc2)nn1
10 | 45.4 | CCCCCCCCCCn1cc(/C=C/C(=O)c2ccc(NC(=O)CN3CCN(C(=O)OC(C)(C)C)CC3)cc2)nn1
11 | 38.4 | CC(C)(C)OC(=O)N1CCN(CC(=O)Nc2ccc(C(=O)/C=C/c3cn(Cc4ccc(Br)cc4)nn3)cc2)CC1
12 | 45.5 | O=C(CN1CCN(c2ccc([N+](=O)[O-])cc2)CC1)Nc1ccc(C(=O)/C=C/c2cn(Cc3ccc(Br)cc3)nn2)cc1

tested on: HeLa; assay: Antiproliferative activity against human HeLa cells assessed as cell growth inhibition by MTT assay; format: functional, cell-based

Row | IC50 [µM] | SMILES
13 | 78.6 | CCCCCCCCn1cc(/C=C/C(=O)c2ccc(NC(=O)CN3CCC(Cc4ccccc4)CC3)cc2)nn1
14 | 8.42 | CCCCCCCCn1cc(/C=C/C(=O)c2ccc(NC(=O)CBr)cc2)nn1
15 | 50.8 | CCCCCCCCCCn1cc(/C=C/C(=O)c2ccc(NC(=O)CN3CCN(c4ccccc4OC)CC3)cc2)nn1
16 | 33.8 | CCCCCCCCn1cc(/C=C/C(=O)c2ccc(NC(=O)CN3CCN(c4ccccc4)CC3)cc2)nn1
17 | 26.4 | COc1ccccc1N1CCN(CC(=O)Nc2ccc(C(=O)/C=C/c3cn(Cc4ccc(Br)cc4)nn3)cc2)CC1
18 | 7.41 | CCCCCCCCCCn1cc(/C=C/C(=O)c2ccc(NC(=O)CBr)cc2)nn1
19 | 59.1 | CCCCCCCCCCn1cc(/C=C/C(=O)c2ccc(NC(=O)CN3CCN(c4ccccc4)CC3)cc2)nn1
20 | 26.8 | CCCCCCCCn1cc(/C=C/C(=O)c2ccc(NC(=O)CN3CCN(c4ccccc4OC)CC3)cc2)nn1
21 | 33.8 | CCCCCCCCn1cc(/C=C/C(=O)c2ccc(NC(=O)CN3CCN(c4ccccc4F)CC3)cc2)nn1
22 | 30.2 | CCCCCCCCCCn1cc(/C=C/C(=O)c2ccc(NC(=O)CN3CCN(C(=O)OC(C)(C)C)CC3)cc2)nn1
23 | 18.9 | CC(C)(C)OC(=O)N1CCN(CC(=O)Nc2ccc(C(=O)/C=C/c3cn(Cc4ccc(Br)cc4)nn3)cc2)CC1
24 | 26.6 | O=C(CN1CCN(c2ccc([N+](=O)[O-])cc2)CC1)Nc1ccc(C(=O)/C=C/c2cn(Cc3ccc(Br)cc3)nn2)cc1

tested on: MCF7; assay: Antiproliferative activity against human MCF7 cells assessed as cell growth inhibition by MTT assay; format: functional, cell-based

Row | IC50 [µM] | SMILES
25 | 52.6 | CCCCCCCCn1cc(/C=C/C(=O)c2ccc(NC(=O)CN3CCC(Cc4ccccc4)CC3)cc2)nn1
26 | 12.9 | CCCCCCCCn1cc(/C=C/C(=O)c2ccc(NC(=O)CBr)cc2)nn1
27 | 44.8 | CCCCCCCCCCn1cc(/C=C/C(=O)c2ccc(NC(=O)CN3CCN(c4ccccc4OC)CC3)cc2)nn1
28 | 31.9 | CCCCCCCCn1cc(/C=C/C(=O)c2ccc(NC(=O)CN3CCN(c4ccccc4)CC3)cc2)nn1
29 | 36.8 | COc1ccccc1N1CCN(CC(=O)Nc2ccc(C(=O)/C=C/c3cn(Cc4ccc(Br)cc4)nn3)cc2)CC1
30 | 9.76 | CCCCCCCCCCn1cc(/C=C/C(=O)c2ccc(NC(=O)CBr)cc2)nn1
31 | > 100 | CCCCCCCCCCn1cc(/C=C/C(=O)c2ccc(NC(=O)CN3CCN(c4ccccc4)CC3)cc2)nn1
32 | 30 | CCCCCCCCn1cc(/C=C/C(=O)c2ccc(NC(=O)CN3CCN(c4ccccc4OC)CC3)cc2)nn1
33 | 68.6 | CCCCCCCCn1cc(/C=C/C(=O)c2ccc(NC(=O)CN3CCN(c4ccccc4F)CC3)cc2)nn1
34 | 40 | CCCCCCCCCCn1cc(/C=C/C(=O)c2ccc(NC(=O)CN3CCN(C(=O)OC(C)(C)C)CC3)cc2)nn1
35 | 31 | CC(C)(C)OC(=O)N1CCN(CC(=O)Nc2ccc(C(=O)/C=C/c3cn(Cc4ccc(Br)cc4)nn3)cc2)CC1
36 | 31.6 | O=C(CN1CCN(c2ccc([N+](=O)[O-])cc2)CC1)Nc1ccc(C(=O)/C=C/c2cn(Cc3ccc(Br)cc3)nn2)cc1

tested on: SK-N-SH; assay: Antiproliferative activity against human SK-N-SH cells assessed as cell growth inhibition by MTT assay; format: functional, cell-based

Row | IC50 [µM] | SMILES
37 | 57 | CCCCCCCCn1cc(/C=C/C(=O)c2ccc(NC(=O)CN3CCC(Cc4ccccc4)CC3)cc2)nn1
38 | 8.46 | CCCCCCCCn1cc(/C=C/C(=O)c2ccc(NC(=O)CBr)cc2)nn1
39 | 87.6 | CCCCCCCCCCn1cc(/C=C/C(=O)c2ccc(NC(=O)CN3CCN(c4ccccc4OC)CC3)cc2)nn1
40 | 41.4 | CCCCCCCCn1cc(/C=C/C(=O)c2ccc(NC(=O)CN3CCN(c4ccccc4)CC3)cc2)nn1
41 | 28 | COc1ccccc1N1CCN(CC(=O)Nc2ccc(C(=O)/C=C/c3cn(Cc4ccc(Br)cc4)nn3)cc2)CC1
42 | 8.68 | CCCCCCCCCCn1cc(/C=C/C(=O)c2ccc(NC(=O)CBr)cc2)nn1
43 | 39.5 | CCCCCCCCCCn1cc(/C=C/C(=O)c2ccc(NC(=O)CN3CCN(c4ccccc4)CC3)cc2)nn1
44 | 21.5 | CCCCCCCCn1cc(/C=C/C(=O)c2ccc(NC(=O)CN3CCN(c4ccccc4OC)CC3)cc2)nn1
45 | 60.3 | CCCCCCCCn1cc(/C=C/C(=O)c2ccc(NC(=O)CN3CCN(c4ccccc4F)CC3)cc2)nn1
46 | 77.8 | CCCCCCCCCCn1cc(/C=C/C(=O)c2ccc(NC(=O)CN3CCN(C(=O)OC(C)(C)C)CC3)cc2)nn1
47 | 25.8 | CC(C)(C)OC(=O)N1CCN(CC(=O)Nc2ccc(C(=O)/C=C/c3cn(Cc4ccc(Br)cc4)nn3)cc2)CC1
48 | 26.4 | O=C(CN1CCN(c2ccc([N+](=O)[O-])cc2)CC1)Nc1ccc(C(=O)/C=C/c2cn(Cc3ccc(Br)cc3)nn2)cc1
